Experimental data: patent US20160069865A1, “GM1 GANGLIOSIDOSIS HUMAN CELL MODEL AND USE THEREOF” (Korea Research Institute of Bioscience and Biotechnology, priority 2014, published 2016)

Columns and labels:
GM1-NPCs [1] = assay: Morphology of GM1-NPCs originated neurosphere after treatment with inflammasome inhibitors (phase-contrast microscopy); format: cell-based, human; conditions: GM1-iPSCs and neural progenitor cells differentiated from the same; summary statement
Experimental: To investigate the recovery of neural damage caused by the increased activation of inflammasome related metabolic pathway in GM1, GM1-NPCs were treated with the inflammasome inhibitors IL1β antagonist (rhIL1RA) and caspase-1 inhibitor (Z-YVAD-FMK), and then the morphology of GM1-NPCs was investigated.
Particularly, the differentiation of GM1-NPCs was induced by the same manner as described in Example <4-1>. Then, the induced GM1-NPCs were cultured in the culture medium respectively treated with 1 μg/ml rhIL1RA (R&D Systems, USA) or 10 μM Z-YVAD-FMK (Merck Millipore, Germany) in order to inhibit inflammasome therein. 2˜4 weeks later, the cultured GM1-NPCs originated neurosphere was obtained. The morphology of neurosphere was observed by phase-contrast microscopy.

GM1-NPCs [2] = assay: Gene expression pattern in GM1-NPCs treated with inflammasome inhibitor (microarray, qPCR); format: cell-based, human; conditions: for direction of the gene expression pattern change: genes with changed expression in treated GM1-NPCs, FIG. 31, FIG. 33; for share of oligo probe pairs / genes displaying the changed expression pattern: microarray, total 27,375 oligo probe pairs, GM1-NPCs treated with 10 μM Z-YVAD-FMK or 1 μg/ml rhIL1RA
Experimental: To investigate whether or not the neural damage could be alleviated according to the increase of the activation of inflammasome related metabolic pathway in GM1, the gene expression pattern in GM1-NPCs treated with the inflammasome inhibitor was investigated.
Particularly, GM1-NPCs were differentiated according to the method described in Example <4-1>, and then treated with rhIL1RA or Z-YVAD-FMK by the same manner as described in Example <9-1>. Microarray was performed by the same manner as described in Example <7-1> in order to investigate the up- or down-regulation of the gene involved in inflammasome. […] WT-NPC was used as the normal control. As for the negative control, GM1-NPCs were treated with DMSO instead of rhIL1RA or Z-YVAD-FMK. The expression pattern (either up- or down regulation) and the mRNA expression level were investigated by the same manner as described above.

[3] = GM1-NPCs treated with 10 μM Z-YVAD-FMK, FIG. 32

Compound | GM1 patient-specific cell morphology and gene expression pattern (GM1-NPCs [1]) | increase of the reduced B4GALNT expression (GM1-NPCs [2]; [3]) [fold] | reduction of GLB1 expression compared with that in GM1-NPCs (GM1-NPCs [2]; [3]) [%] | direction of the gene expression pattern change (GM1-NPCs [2]) | share of oligo probe pairs / genes displaying the changed expression pattern (GM1-NPCs [2]) [%]
COC(=O)C[C@H](NC(=O)[C@H](C)NC(=O)[C@@H](NC(=O)C(Cc1ccc(O)cc1)NC(=O)OCc1ccccc1)C(C)C)C(=O)CF (stereo partly drawn) [Z-YVAD-FMK, methyl (3S)-3-[(2S)-2-[(2S)-2-(2-{[(benzyloxy)carbonyl]amino}-3-(4-hydroxyphenyl)propanamido)-3-methylbutanamido]propanamido]-5-fluoro-4-oxopentanoate] | recovering the GM1 patient-specific cell morphology and gene expression pattern to the normal ones | 2.6 | 47 | tendency to recover their gene expression patterns changed by GM1 mediated neural damage back to the normal pattern | 9.3
rhIL1RA: interleukin 1-receptor antagonist protein, SEQ. ID. NO: 2, commercial (cat #280-RA-050; R&D systems) | recovering the GM1 patient-specific cell morphology and gene expression pattern to the normal ones |  |  | tendency to recover the abnormal gene expression in GM1 cells to the normal expression pattern | 3.6
